Measured values reported in patent US20040009156A1, “Antisense therapy using oligonucleotides that target human kinesin genes for treatment of cancer” (priority 2001, published 2004).

How the values were obtained:
[1] = test system: SW620 cells; assay: LDH cytotoxicity assay, alone and with cisplatinum; format: cell-based, human; details: FIG. 4
Method: LDH cytotoxicity assays were performed to determine the effect of antisense oligonucleotides on SW620 cell death alone and in the presence of the chemotherapeutic drug cisplatinum. […] Also, the same LDH cytotoxicity assays were performed on MRC9 cells transfected with the same oligonucleotides in the presence or absence of cisplatinum.

[2] = test system: SW620 cells; assay: Cell cycle profile by FACS analysis of propidium iodide stained cells; format: cell-based, human; details: SW620 cells transiently transfected; FIG. 2
Method: SW620 cells were transiently transfected with antisense oligonucleotides according to the invention and the effect on cell cycle profile evaluated by FACS analysis of propidium iodide stained cells. It was observed that cell tested antisense oligonucleotides arrested cells in G2/M phase to different degrees. […] Also, the effect of the same antisense oligonucleotides on the cell cycle of normal human filonblasts was tested.

[3] = test system: human colon cancer cell line SW620; assay: Soft agar growth (anchorage independent growth) of transfected SW620 cells; format: cell-based; details: SW620 cells transfected with antisense oligonucleotide; versus reverse control; FIG. 1
Description: The antisense oligonucleotides (SEQ IDNO:17), (SEQ IDNO:4), and (SEQ ID NO:1) were each transfected into the human colon cancer cell line SW620. Additionally, the same colon cancer cell line was transfected with the corresponding reverse control sequences (respectively SEQ ID NO:35, SEQ ID NO:22 and SEQ ID NO:19). […] These assay results contained in FIG. 1 indicate that the synthesized kinesin antisense oligonucleotides inhibit tumorigenesis.

CCTCCGCCATCCTATCAGGCTGAA (chemistry not given here) [SEQ ID NO:1]
cell death (LDH cytotoxicity), oligonucleotide alone [1]: did not induce cytotoxicity | cell cycle arrest in G2/M phase [2]: next best inhibiting effect | capability of the cells to grow in soft agar (anchorage independent growth) [3]: significantly inhibited

GTTGATCTGGGCTCGCAGAGGTAAT (chemistry not given here) [SEQ ID NO:4]
cell death (LDH cytotoxicity), oligonucleotide alone [1]: induced death | capability of the cells to grow in soft agar (anchorage independent growth) [3]: significantly inhibited

TGGATAAATTGCCTGGAATCAGCGC (chemistry not given here) [SEQ ID NO:17]
cytotoxicity (LDH) in combination with cisplatinum ([1]; in combination with the chemotherapeutic drug cisplatinum): increase in cytotoxicity | capability of the cells to grow in soft agar (anchorage independent growth) [3]: significantly inhibited
